The numbers were not newly measured in patent US7897154B2, “Dermal drops” (ABR, LLC, priority 2006, dated 2011), which cites them from elsewhere.

For series [1], the system named is H. ras transformed rat2 cells.
For series [2] the following is noted: animal models of non-insulin-dependent diabetes.

As for dehydrotrametenolic acid [DHTA], in series [1], the apoptosis entry is on record as “induce apoptosis” and the growth entry is reported as “inhibit the growth of H. ras”. Moreover, the sensitization to insulin entry in series [2] is on record as “sensitize animal models of non-insulin-dependent diabetes to insulin”. Also, the pre-adipocyte differentiation entry in the series with pre-adipocyte is reported as “induce pre-adipocyte differentiation”.
